In the supplement of paper PMC6965134:
± gives the standard deviation of the averaged measurements.

Experiment: TIMS collisional cross section (CCS, N2) of the lipid ion; higher = larger ion cross section
Settings: ionization mode: positive, one isomer drawn
Experimental: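 Lipid extracts of human plasma (NIST SRM 1950), mouse liver and HeLa cells were separated by nanoflow C18 LC (30 min gradient, 60 °C) and analysed by TIMS-PASEF on a timsTOF Pro in positive ion mode. Ion mobility was calibrated with the Agilent tuning mix and converted to collisional cross sections (Mason–Schamp) in N2 drift gas. Lipids were identified by MS/MS (SimLipid) and manual curation. SMILES are LIPID MAPS representative structures for the annotated lipid.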

Compound | TIMS collisional cross section (sample type: Liver) [Å²] | TIMS collisional cross section (sample type: HeLa) [Å²] | TIMS collisional cross section (sample type: plasma) [Å²]
CCCCC/C=C\C/C=C\CCCCCCCCCCCC(=O)O[C@@H](CO)COC(=O)CCCCCCC/C=C\C/C=C\CCCCC [DG 18:2_22:2_0:0] (ion (formula + adduct): [C43H76O5+NH4] 1+) | 272.5 |  | 
CCCCC/C=C\C/C=C\C/C=C\C/C=C\CCCCCC(=O)O[C@@H](CO)COC(=O)CCCCCCC/C=C\C/C=C\CCCCC [DG 18:2_22:4_0:0] (ion (formula + adduct): [C43H72O5+NH4] 1+) | 270.8 |  | 
CC/C=C\C/C=C\C/C=C\C/C=C\C/C=C\CCCCCC(=O)O[C@@H](CO)COC(=O)CCCCCCC/C=C\C/C=C\CCCCC [DG 18:2_22:5_0:0] (ion (formula + adduct): [C43H70O5+NH4] 1+) | 266.9 |  | 
CCCCC/C=C\C/C=C\C/C=C\C/C=C\CCCC(=O)O[C@@H](CO)COC(=O)CCCCCCCCCCCCCCCCCC [DG 19:0_20:4_0:0] (ion (formula + adduct): [C42H74O5+NH4] 1+) | 274.3 |  | 
CCCCCC/C=C\CCCCCCCC(=O)O[C@@H](CO)COC(=O)CCCCCCC/C=C\CCCCCCCCC [DG 19:1_16:1_0:0] (ion (formula + adduct): [C38H70O5+NH4] 1+) |  | 261.1 | 
CCCCCCCC/C=C\CCCCCCCC(=O)O[C@@H](CO)COC(=O)CCCCCCC/C=C\CCCCCCCCC [DG 19:1_18:1_0:0] (ion (formula + adduct): [C40H74O5+NH4] 1+) |  | 268.3 | 
CCCCCCCCCCCCCCCCCCCCCC(=O)OC[C@H](CO)OC(=O)CCCCCCCCCCCCCCCCCCCCC [DG 22:0_22:0_0:0] (ion (formula + adduct): [C47H92O5+NH4] 1+) |  |  | 301.3
C[C@H](CO)CC[C@H](O)[C@@H](C)[C@H]1CC[C@H]2[C@@H]3CC=C4C[C@@H](O)CC[C@]4(C)[C@H]3CC[C@]12C [Dormatinol] (ion (formula + adduct): [C27H46O3+H] 1+) |  |  | 210.9
CCCCCCCCCCCCC/C=C/[C@@H](O)[C@H](CO[C@@H]1OC(CO)[C@@H](O[C@@H]2OC(CO)[C@H](O)[C@H](O)C2O)[C@H](O)C1O)NC(=O)CCCCCCCCCCCCC (stereo partly specified) [GlcCer d18:1_14:0@] (ion (formula + adduct): [C44H83NO13+H] 1+) |  | 297.2 | 
CCCCCCCCCCCCC/C=C/[C@@H](O)[C@H](CO[C@@H]1OC(CO)[C@@H](O[C@@H]2OC(CO)[C@H](O)[C@H](O)C2O)[C@H](O)C1O)NC(=O)CCCCCCCCCCCCCCC (stereo partly specified) [GlcCer d18:1_16:0@] (ion (formula + adduct): [C46H87NO13+H] 1+) |  |  | 304.2
CCCCCCCCCCCCC/C=C/[C@@H](O)[C@H](CO[C@@H]1OC(CO)[C@@H](O[C@@H]2OC(CO)[C@H](O)[C@H](O)C2O)[C@H](O)C1O)NC(=O)CCCCCCCCCCCCCCC (stereo partly specified) [GlcCer d18:1_16:0] (ion (formula + adduct): [C46H87NO13+H] 1+) |  | 304.1 | 
CCCCCCCCCCCCC/C=C/[C@@H](O)[C@H](CO[C@@H]1O[C@H](CO)[C@@H](O)C(O)C1O)NC(=O)CCCCCCCCCCCCCCCCCCC (stereo partly specified) [GlcCer d18:1_20:0@] (ion (formula + adduct): [C44H85NO8+H] 1+) | 292.9 |  | 
CCCCCCCCCCCCC/C=C/[C@@H](O)[C@H](CO[C@@H]1O[C@H](CO)[C@@H](O)C(O)C1O)NC(=O)CCCCCCCCCCCCCCCCCCCCC (stereo partly specified) [GlcCer d18:1_22:0@] (ion (formula + adduct): [C46H89NO8+H] 1+) | 298.7 | 298.3 | 298.1
CCCCCCCCCCCCC/C=C/[C@@H](O)[C@H](CO[C@@H]1O[C@H](CO)[C@@H](O)C(O)C1O)NC(=O)CCCCCCCCCCCCCCCCCCCCCC (stereo partly specified) [GlcCer d18:1_23:0@] (ion (formula + adduct): [C47H91NO8+H] 1+) | 301.2 | 301.5 | 
CCCCCCCCCCCCC/C=C/[C@@H](O)[C@H](CO[C@@H]1O[C@H](CO)[C@@H](O)C(O)C1O)NC(=O)CCCCCCCCCCCCCCCCCCCCCCC (stereo partly specified) [GlcCer d18:1_24:0@] (ion (formula + adduct): [C48H93NO8+H] 1+) | 304.1 | 304.2 | 
CCCCCCCC/C=C\CCCCCCCCCCCCCC(=O)N[C@@H](CO[C@@H]1O[C@H](CO)[C@@H](O)C(O)C1O)[C@H](O)/C=C/CCCCCCCCCCCCC (stereo partly specified) [GlcCer d18:1_24:1@] (ion (formula + adduct): [C48H91NO8+H] 1+) | 302.8 |  | 

Compound | TIMS collisional cross section (sample type: Liver) [Å²] | TIMS collisional cross section (sample type: HeLa) [Å²] | TIMS collisional cross section (sample type: plasma) [Å²]
CCCCC/C=C\C/C=C\C/C=C\C/C=C\CCCC(=O)OC[C@@H](O)COP(=O)(O)O [LPA 20:4_0:0] (ion (formula + adduct): [C23H39O7P+H] 1+) |  |  | 205
CCCCCCCCCCCCCC(=O)OC[C@@H](O)COP(=O)([O-])OCC[N+](C)(C)C [LPC 14:0_0:0] (ion (formula + adduct): [C22H46NO7P+H] 1+) |  | 222.8 | 222.55 ± 0.78
CCCCCCCCCCCCCCCC(=O)O[C@H](CO)COP(=O)([O-])OCC[N+](C)(C)C [LPC 16:0] (ion (formula + adduct): [C24H50NO7P+H] 1+) | 229.9 |  | 231
CCCCCCCCCCCCCCCC(=O)OC[C@@H](O)COP(=O)([O-])OCC[N+](C)(C)C [LPC 16:0_0:0] (ion (formula + adduct): [C24H50NO7P+H] 1+) | 230.6 | 230.8 | 229.87 ± 0.98
CCCCCC/C=C/CCCCCCCC(=O)OC[C@@H](O)COP(=O)([O-])OCC[N+](C)(C)C [LPC 16:1] (ion (formula + adduct): [C24H48NO7P+H] 1+) | 224.5 | 226 | 225.13 ± 1.1
CCCCCC/C=C/CCCCCCCC(=O)OC[C@@H](O)COP(=O)([O-])OCC[N+](C)(C)C [LPC 16:1_0:0] (ion (formula + adduct): [C24H48NO7P+H] 1+) |  |  | 225.77 ± 1.4
CCCCCCCCCCCCCCCCCC(=O)O[C@H](CO)COP(=O)([O-])OCC[N+](C)(C)C [LPC 18:0] (ion (formula + adduct): [C26H54NO7P+H] 1+) |  | 237.1 | 238.4
CCCCCCCCCCC/C=C\CCCCC(=O)O[C@H](CO)COP(=O)([O-])OCC[N+](C)(C)C [LPC 18:1] (ion (formula + adduct): [C26H52NO7P+H] 1+) |  |  | 231.9
CCCCCCCCCCC/C=C\CCCCC(=O)OC[C@@H](O)COP(=O)([O-])OCC[N+](C)(C)C [LPC 18:1_0:0] (ion (formula + adduct): [C26H52NO7P+H] 1+) | 232.95 ± 1.1 | 233.6 | 232.8 ± 0.42
CCCCCCCCCCCCC/C=C/C=C/C(=O)OC[C@@H](O)COP(=O)([O-])OCC[N+](C)(C)C [LPC 18:2_0:0] (ion (formula + adduct): [C26H50NO7P+H] 1+) | 227.6 ± 1.3 | 227.3 ± 1.3 | 226.96 ± 1.1
CC/C=C\C/C=C\C/C=C\CCCCCCCC(=O)OC[C@@H](O)COP(=O)([O-])OCC[N+](C)(C)C [LPC 18:3] (ion (formula + adduct): [C26H48NO7P+H] 1+) |  |  | 224.9
CC/C=C/C=C/C=C/C=C/CCCCCCCC(=O)OC[C@@H](O)COP(=O)([O-])OCC[N+](C)(C)C [LPC 18:4] (ion (formula + adduct): [C26H46NO7P+H] 1+) |  |  | 220.8
CCCCCCCCCCCCCCCCCCCC(=O)OC[C@@H](O)COP(=O)([O-])OCC[N+](C)(C)C [LPC 20:0_0:0] (ion (formula + adduct): [C28H58NO7P+H] 1+) |  |  | 245
CCCCCCCCCC/C=C\CCCCCCCC(=O)OC[C@@H](O)COP(=O)([O-])OCC[N+](C)(C)C [LPC 20:1_0:0] (ion (formula + adduct): [C28H56NO7P+H] 1+) | 239 |  | 239.3
CCCCC/C=C\C/C=C\C/C=C\CCCCCCC(=O)OC[C@@H](O)COP(=O)([O-])OCC[N+](C)(C)C [LPC 20:3] (ion (formula + adduct): [C28H52NO7P+H] 1+) | 236.2 | 234.05 ± 2.8 | 232.57 ± 2.1
CCCCC/C=C\C/C=C\C/C=C\CCCCCCC(=O)OC[C@@H](O)COP(=O)([O-])OCC[N+](C)(C)C [LPC 20:3_0:0] (ion (formula + adduct): [C28H52NO7P+H] 1+) | 231.55 ± 1.1 |  | 232.43 ± 1.2
